According to PubChem BioAssay (NCI):
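A five-concentration, 48-hour dose response in 96-well plates underlies each endpoint, interpolated linearly between surrounding concentrations. At the GI50, growth is halved. Definition used: TGI = concentration required for complete inhibition of growth.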

Columns and labels:
Experiment in all cases: NCI anticancer screen, dose series, 48 h
[1] = system: 786-0 renal
[2] = system: A498 renal
[3] = system: A549 NSCLC
[4] = system: ACHN renal
[5] = system: BT-549 breast
[6] = system: CAKI-1 renal
[7] = system: CCRF-CEM leukemia
[8] = system: COLO 205 colon
[9] = system: DU-145 prostate
[10] = system: EKVX NSCLC
[11] = system: HCC-2998 colon
[12] = system: HCT-116 colon
[13] = system: HCT-15 colon
[14] = system: HL-60(TB) leukemia
[15] = system: HOP-62 NSCLC
[16] = system: HOP-92 NSCLC
[17] = system: HS 578T breast
[18] = system: HT29 colon
[19] = system: IGROV1 ovarian
[20] = system: K-562 leukemia
[21] = system: KM12 colon
[22] = system: LOX IMVI melanoma
[23] = system: M14 melanoma
[24] = system: MALME-3M melanoma
[25] = system: MCF7 breast
[26] = system: MDA-MB-231 breast
[27] = system: MDA-MB-435
[28] = system: MDA-MB-468 breast
[29] = system: MOLT-4 leukemia
[30] = system: NCI-H226 lung
[31] = system: NCI-H23 lung
[32] = system: NCI-H460 lung
[33] = system: NCI-H522 lung
[34] = system: NCI/ADR-RES ovarian
[35] = system: OVCAR-3 ovarian
[36] = system: OVCAR-4 ovarian
[37] = system: OVCAR-5 ovarian
[38] = system: OVCAR-8 ovarian
[39] = system: PC-3 prostate
[40] = system: RPMI-8226 leukemia
[41] = system: RXF 393 renal
[42] = system: SF-268 CNS
[43] = system: SF-295 CNS
[44] = system: SF-539 CNS
[45] = system: SK-MEL-2 melanoma
[46] = system: SK-MEL-28 melanoma
[47] = system: SK-MEL-5 melanoma
[48] = system: SK-OV-3 ovarian
[49] = system: SN12C renal
[50] = system: SNB-19 CNS
[51] = system: SNB-75 CNS
[52] = system: SR leukemia
[53] = system: SW-620 colon
[54] = system: T-47D breast
[55] = system: TK-10 renal
[56] = system: U251 CNS
[57] = system: UACC-257 melanoma
[58] = system: UACC-62 melanoma
[59] = system: UO-31 renal

Compound: Cc1ccc(C2CC(c3ccc(NC(=S)Nc4ccccc4)cc3)=NN2c2ccc(S(N)(=O)=O)cc2)cc1 (stereo not drawn)
- GI50 [1]: 3.89 µM
- TGI [1]: 22.5 µM
- GI50 [2]: 6.73 µM
- TGI [2]: 25.8 µM
- GI50 [3]: 4.09 µM
- TGI [3]: > 100 µM
- GI50 [4]: 3.25 µM
- TGI [4]: 11.6 µM
- GI50 [5]: 6.06 µM
- TGI [5]: 19.3 µM
- GI50 [6]: 3.12 µM
- TGI [6]: 12.7 µM
- GI50 [7]: 3.18 µM
- TGI [7]: 53.1 µM
- GI50 [8]: 3.56 µM
- TGI [8]: 12.3 µM
- GI50 [9]: 8.22 µM
- TGI [9]: 97.1 µM
- GI50 [10]: 3.75 µM
- TGI [10]: 37.3 µM
- GI50 [11]: 3.58 µM
- TGI [11]: 18.3 µM
- GI50 [12]: 3.28 µM
- TGI [12]: 16.9 µM
- GI50 [13]: 3.05 µM
- TGI [13]: 18.8 µM
- GI50 [14]: 2.33 µM
- TGI [14]: 6.51 µM
- GI50 [15]: 8.74 µM
- TGI [15]: 34.2 µM
- GI50 [16]: 3.81 µM
- TGI [16]: 22 µM
- GI50 [17]: 8.04 µM
- TGI [17]: 48.4 µM
- GI50 [18]: 2.55 µM
- TGI [18]: 8.75 µM
- GI50 [19]: 3.44 µM
- TGI [19]: 14.7 µM
- GI50 [20]: 3.2 µM
- TGI [20]: 47.6 µM
- GI50 [21]: 4.67 µM
- TGI [21]: 23.7 µM
- GI50 [22]: 4.76 µM
- TGI [22]: 20 µM
- GI50 [23]: 4.2 µM
- TGI [23]: 17.8 µM
- GI50 [24]: 6.88 µM
- TGI [24]: 23.6 µM
- GI50 [25]: 2.78 µM
- TGI [25]: 14.2 µM
- GI50 [26]: 9.63 µM
- TGI [26]: 29.6 µM
- GI50 [27]: 3.06 µM
- TGI [27]: 25 µM
- GI50 [28]: 1.81 µM
- TGI [28]: 5.56 µM
- GI50 [29]: 2.62 µM
- TGI [29]: 13.2 µM
- GI50 [30]: 3.31 µM
- TGI [30]: 19.1 µM
- GI50 [31]: 5.79 µM
- TGI [31]: 34 µM
- GI50 [32]: 3.1 µM
- TGI [32]: 11.5 µM
- GI50 [33]: 2.84 µM
- TGI [33]: 14.8 µM
- GI50 [34]: 4.04 µM
- TGI [34]: 49.5 µM
- GI50 [35]: 3.28 µM
- TGI [35]: 22.7 µM
- GI50 [36]: 4.06 µM
- TGI [36]: 33.5 µM
- GI50 [37]: 4.54 µM
- TGI [37]: 17.9 µM
- GI50 [38]: 5.96 µM
- TGI [38]: 67.8 µM
- GI50 [39]: 2.75 µM
- TGI [39]: 14 µM
- GI50 [40]: 3.45 µM
- TGI [40]: > 100 µM
- GI50 [41]: 2.99 µM
- TGI [41]: 12.7 µM
- GI50 [42]: 4.11 µM
- TGI [42]: > 100 µM
- GI50 [43]: 3.28 µM
- TGI [43]: 15.7 µM
- GI50 [44]: 5.4 µM
- TGI [44]: 19.8 µM
- GI50 [45]: 6.22 µM
- TGI [45]: 21.1 µM
- GI50 [46]: 4.69 µM
- TGI [46]: 16.4 µM
- GI50 [47]: 4.83 µM
- TGI [47]: 17.8 µM
- GI50 [48]: 11 µM
- TGI [48]: 32.9 µM
- GI50 [49]: 4.23 µM
- TGI [49]: 29.5 µM
- GI50 [50]: 4.97 µM
- TGI [50]: 23.2 µM
- GI50 [51]: 2.01 µM
- TGI [51]: 14.6 µM
- GI50 [52]: 3.3 µM
- TGI [52]: 27.2 µM
- GI50 [53]: 3.52 µM
- TGI [53]: 26.6 µM
- GI50 [54]: 3.16 µM
- TGI [54]: 17.5 µM
- GI50 [55]: 3.09 µM
- TGI [55]: 17.6 µM
- GI50 [56]: 5.29 µM
- TGI [56]: 24.2 µM
- GI50 [57]: 6.4 µM
- TGI [57]: 30.9 µM
- GI50 [58]: 3.45 µM
- TGI [58]: 16 µM
- GI50 [59]: 2.67 µM
- TGI [59]: 13.3 µM
